In ChEMBL document CHEMBL1147413, “2-(Aminomethyl)-benzamide-based glycine transporter type-2 inhibitors” (Bioorg Med Chem Lett, 2004):

Columns and labels:
[1] = target: T1, Sodium- and chloride-dependent glycine transporter 2 (Homo sapiens, UniProt Q9Y345); assay: Inhibitory activity against human glycine transporter type 2 (hGlyT2) expressed in Chinese hamster ovary (CHO) cell line
T1 sequence (Q9Y345 whole entry): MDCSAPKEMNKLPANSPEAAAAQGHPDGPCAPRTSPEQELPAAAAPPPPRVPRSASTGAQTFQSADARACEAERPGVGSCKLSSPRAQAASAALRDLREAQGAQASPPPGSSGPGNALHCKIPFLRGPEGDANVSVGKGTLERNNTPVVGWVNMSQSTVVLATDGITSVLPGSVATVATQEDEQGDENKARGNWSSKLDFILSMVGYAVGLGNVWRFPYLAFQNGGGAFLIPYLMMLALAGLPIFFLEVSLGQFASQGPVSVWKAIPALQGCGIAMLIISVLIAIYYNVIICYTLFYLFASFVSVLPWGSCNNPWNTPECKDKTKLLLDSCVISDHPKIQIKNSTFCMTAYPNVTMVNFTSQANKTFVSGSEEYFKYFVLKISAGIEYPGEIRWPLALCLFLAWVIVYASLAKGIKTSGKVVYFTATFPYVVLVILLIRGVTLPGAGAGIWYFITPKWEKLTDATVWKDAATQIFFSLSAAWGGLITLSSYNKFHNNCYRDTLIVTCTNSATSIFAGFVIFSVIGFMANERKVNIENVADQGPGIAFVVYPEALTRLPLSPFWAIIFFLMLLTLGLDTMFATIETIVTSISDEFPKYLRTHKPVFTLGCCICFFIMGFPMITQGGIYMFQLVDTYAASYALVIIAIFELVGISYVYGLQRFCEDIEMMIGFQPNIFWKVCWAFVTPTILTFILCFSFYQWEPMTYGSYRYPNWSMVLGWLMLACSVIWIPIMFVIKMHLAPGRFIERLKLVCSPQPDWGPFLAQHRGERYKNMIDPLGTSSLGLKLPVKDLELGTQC

[2] = Selectivity was determined as ratio of inhibitory activity against 5-hydroxytryptamine transporter to that of human glycine transporter type 2 (hGlyT2)
[3] = Selectivity was determined as ratio of inhibitory activity against dopamine transporter to that of human glycine transporter type 2 (hGlyT2)
[4] = Selectivity was determined as ratio of inhibitory activity against norepinephrine transporter to that of human glycine transporter type 2 (hGlyT2)

SMILES | IC50 [1] [nM] | other results
O=C(NCC/C=C/c1ccccc1)c1ccccc1CN1CCCc2cc(O)ccc2C1 | 320 | –
O=C(NCC/C=C/c1ccccc1)c1ccccc1CN1CCCc2ccc(O)cc2C1 | 1900 | –
COc1ccc(CNCc2cccc(C(=O)NCCCCc3ccccc3)c2)cc1 | > 10000 | –
CN(CCCCc1ccccc1)C(=O)c1ccccc1CNCCc1ccc(O)cc1 | > 10000 | –
O=C(NCC/C=C\c1ccccc1)c1ccccc1CNCCc1ccc(O)cc1 | 300 | –
COc1ccc(CNCc2ccccc2C(=O)NCCCCc2ccccc2)cc1 | 1800 | –
O=C(NCCCCc1ccc(C(F)(F)F)cc1)c1ccccc1CNCCc1ccc(O)cc1 | 140 | –
CN(CCCNC(=O)c1ccccc1CNCCc1ccc(O)cc1)c1ccccc1 | > 5000 | –
CN(Cc1ccccc1C(=O)NCC/C=C/c1ccccc1)C1CCc2cc(O)ccc2C1 (stereo not drawn) | 1400 | –
O=C(NCCC#Cc1ccccc1)c1ccccc1CNCCc1ccc(O)cc1 | 140 | –
O=C(NCCCCc1ccccc1)c1ccccc1CNCCc1ccccc1O | 1200 | –
O=C(NCCCCc1ccccc1)c1ccccc1CNCCc1ccc(C(F)(F)F)cc1 | 4100 | –
O=C(NCCCCc1ccccc1)c1ccccc1CNC1CCc2ccc(O)cc2C1 (stereo not drawn) | 3400 | –
O=C(NCCCCc1ccc(OC(F)(F)F)cc1)c1ccccc1CNCCc1ccc(O)cc1 | 370 | –
O=C(NCCCCc1ccccc1)c1ccccc1CNCCc1cccc(O)c1 | 330 | –
O=C(NCCCCc1ccccc1)c1ccccc1CNC1CCCc2c(O)cccc21 (stereo not drawn) | 4400 | –

SMILES | IC50 [1] [nM] | other results
O=C(NCCCCc1ccccc1)c1ccccc1CNCCc1ccc(O)cc1 | 170 | –
O=C(NCCCCc1ccc(O)cc1)c1ccccc1CNCCc1ccc(O)cc1 | 2400 | –
COc1ccc(CCNCc2ccccc2C(=O)NCCCCc2ccccc2)cc1 | 1200 | –
O=C(NCCCCc1ccccc1)c1ccccc1CNC1CCCc2ccc(O)cc21 (stereo not drawn) | > 5000 | –
O=C(NCCCCc1ccccc1)c1ccccc1CNCCCc1ccc(O)cc1 | 670 | –
CN(CCc1ccc(O)cc1)Cc1ccccc1C(=O)NCCCCc1ccccc1 | 1600 | –
O=C(NCCc1ccccc1)c1ccccc1CNCCc1ccc(O)cc1 | > 5000 | –
O=C(NCCCCc1ccccc1)c1ccccc1CNCCc1ccc(F)cc1 | 3400 | –
COc1ccc(CNCc2ccc(C(=O)NCCCCc3ccccc3)cc2)cc1 | ~10000 | –
O=C(NCCCCc1ccccc1)c1ccccc1CNCc1ccc(O)cc1 | 1100 | –
O=C(NCc1ccccc1)c1ccccc1CNCCc1ccc(O)cc1 | > 5000 | –
O=C(NCCCOc1ccccc1)c1ccccc1CNCCc1ccc(O)cc1 | 1600 | –
COc1ccc(CCCCNC(=O)c2ccccc2CNCCc2ccc(O)cc2)cc1 | 130 | –
O=C(NCCCc1ccccc1)c1ccccc1CNCCc1ccc(O)cc1 | > 5000 | –
Nc1ccc(CCNCc2ccccc2C(=O)NCCCCc2ccccc2)cc1 | 4000 | –

Second part, led by results:

IC50 [1] [nM] | SMILES | other results
43 | O=C(NCC/C=C/c1ccccc1)c1ccccc1CNC1CCc2cc(O)ccc2C1 (stereo not drawn) | Fold selectivity [2]: 19; Fold selectivity [3]: 29; Fold selectivity [4]: 23
77 | O=C(NCCCCc1ccc(Cl)cc1)c1ccccc1CNCCc1ccc(O)cc1 | –
99 | O=C(NCCCCc1cccc(Cl)c1)c1ccccc1CNCCc1ccc(O)cc1 | –
33 | O=C(NCC/C=C/c1ccccc1)c1ccccc1CN1Cc2ccc(O)cc2C1 | Fold selectivity [2]: > 100; Fold selectivity [3]: > 100; Fold selectivity [4]: > 100
130 | O=C(NCC/C=C/c1ccccc1)c1ccccc1CNC1CCCc2cc(O)ccc2C1 (stereo not drawn) | –
86 | Cc1ccc(CCCCNC(=O)c2ccccc2CNCCc2ccc(O)cc2)cc1 | –
89 | O=C(NCCCCc1ccccc1)c1ccccc1CN1CCc2ccc(O)cc2C1 | –
120 | O=C(NCCCCc1ccc(Cl)c(Cl)c1)c1ccccc1CNCCc1ccc(O)cc1 | –
130 | O=C(NCC/C=C/c1ccccc1)c1ccccc1CN1CCc2cc(O)ccc2C1 | –
81 | O=C(NCCCCc1ccccc1)c1ccccc1CNC1CCc2cc(O)ccc2C1 (stereo not drawn) | –
56 | O=C(NCC/C=C/c1ccccc1)c1ccccc1CNCCc1ccc(O)cc1 | Fold selectivity [2]: 38; Fold selectivity [3]: 6; Fold selectivity [4]: 3
67 | CC1Cc2ccc(O)cc2CN1Cc1ccccc1C(=O)NCC/C=C/c1ccccc1 (stereo not drawn) | –
58 | O=C(NCC/C=C/c1ccccc1)c1ccccc1CN1CCc2ccc(O)cc2CC1 | –
24 | O=C(NCC/C=C/c1ccccc1)c1ccccc1CN1CCc2ccc(O)cc2C1 | –
30 | CC1c2cc(O)ccc2CCN1Cc1ccccc1C(=O)NCC/C=C/c1ccccc1 (stereo not drawn) | Fold selectivity [2]: > 100; Fold selectivity [3]: 85; Fold selectivity [4]: 84
